Here are results for 38 compounds from patent US7687501B2, “Pyridothienopyridazinone derivatives as mGluR1 antagonists” (Schering Corporation, priority 2005, dated 2010).

Like-named read-outs stand apart in the source and are kept apart here.

This experiment addresses T1, hmGluR1 receptor (Homo sapiens, UniProt Q13255).
T1 construct: expressed in transfected cells; host or cells: CHO
Kind of experiment: IC50 determination: intracellular calcium mobilization (FLIPR) upon Quisqualate stimulation in CHO cell line stably expressing hmGluR1. It counts as cell-based. Particulars: CHO cells expressing hmGluR1, against Quisqualate 1 μM (EC80), compounds added 10 minutes before Quisqualate. Here is the method:
A CHO cell line stably expressing hmGluR1 receptor was established. One day prior to assay, cells were split in growth media at concentration of 50,000 cells/well in a volume of 100 μl and seeded into black clear-bottom 96-well plates. After two to six hours, when cells were well attached to the plate, growth medium was replaced with assay medium (100 μL) consisting of DMEM high glucose, supplemented with GPT (1 U/mL) and sodium pyruvate, 1 mM. Following overnight incubation, medium was discarded and cells were loaded for 2 hours with dye from the Calcium 3 Assay Reagent Kit (Molecular Devices, # R8033), prepared according to manufacturers' instructions. A 96-tip pipettor/fluorometric imaging plate reader (FLIPR 384; Molecular Devices) was used and intracellular calcium mobilization was measured by increases in fluorescence upon agonist Quisqualate stimulation following 6 sec-baseline measurement. Test compounds were added 10 minutes before Quisqualate. IC50 determinations for tested compounds were generated against Quisqualate 1 μM corresponding to EC80 value in a standard dose response curve.

T1 sequence (Q13255 19-1194): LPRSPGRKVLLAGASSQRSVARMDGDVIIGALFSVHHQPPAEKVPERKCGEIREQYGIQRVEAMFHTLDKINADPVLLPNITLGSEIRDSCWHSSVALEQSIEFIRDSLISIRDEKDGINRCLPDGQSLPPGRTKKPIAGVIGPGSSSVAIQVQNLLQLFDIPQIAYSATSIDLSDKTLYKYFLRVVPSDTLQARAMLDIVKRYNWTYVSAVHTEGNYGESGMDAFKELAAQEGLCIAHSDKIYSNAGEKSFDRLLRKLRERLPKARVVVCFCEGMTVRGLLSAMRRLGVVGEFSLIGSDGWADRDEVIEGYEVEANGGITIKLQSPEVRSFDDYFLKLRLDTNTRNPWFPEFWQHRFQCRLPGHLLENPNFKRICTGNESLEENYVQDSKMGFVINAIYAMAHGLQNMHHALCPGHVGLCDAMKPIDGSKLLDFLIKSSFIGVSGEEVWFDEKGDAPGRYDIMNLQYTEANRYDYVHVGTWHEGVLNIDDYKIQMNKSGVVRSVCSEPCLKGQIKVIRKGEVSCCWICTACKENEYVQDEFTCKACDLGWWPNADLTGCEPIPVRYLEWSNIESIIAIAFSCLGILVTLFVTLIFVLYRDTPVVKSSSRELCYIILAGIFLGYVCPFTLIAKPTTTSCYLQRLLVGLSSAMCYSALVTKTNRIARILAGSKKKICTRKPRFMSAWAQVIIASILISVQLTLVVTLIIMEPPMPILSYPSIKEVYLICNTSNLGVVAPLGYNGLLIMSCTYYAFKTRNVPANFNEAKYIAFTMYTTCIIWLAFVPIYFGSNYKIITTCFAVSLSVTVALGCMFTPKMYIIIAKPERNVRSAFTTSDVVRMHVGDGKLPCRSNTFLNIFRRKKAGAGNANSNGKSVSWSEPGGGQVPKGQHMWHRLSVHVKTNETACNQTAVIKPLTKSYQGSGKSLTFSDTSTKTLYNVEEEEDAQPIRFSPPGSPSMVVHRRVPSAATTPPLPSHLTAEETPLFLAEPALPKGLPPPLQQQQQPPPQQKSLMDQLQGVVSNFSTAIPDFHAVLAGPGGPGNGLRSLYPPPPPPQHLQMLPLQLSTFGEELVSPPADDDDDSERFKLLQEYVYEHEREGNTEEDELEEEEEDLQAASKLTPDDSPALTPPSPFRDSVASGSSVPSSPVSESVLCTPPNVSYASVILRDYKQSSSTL

Consider `CCNc1ccnc2sc3c(=O)n(-c4ccc(C)cc4)ncc3c12` [Compound 23R], for which the IC50 (commonly the concentration needed to halve the response being measured) runs as follows: (read-out: mGluR1 IC50) 18 nM; (read-out: mGluR1 IC50 rating) under 20 nM.
With `COc1ccc(-n2ncc3c(sc4nccc(N5CC(O)C5)c43)c2=O)cc1` [Compound 23P], the IC50 (read-out: mGluR1 IC50 rating) is 100 to 1000 nM.
On the same count and under the same terms, for `CNc1ccnc2sc3c(=O)n(-c4ccc(Cl)cc4)ncc3c12` [Compound 23C] the value was under 20 nM; for `Cc1ccc(-n2nc(C)c3c(sc4nccc(N(C)C)c43)c2=O)cc1` [Compound 13B], over 1000 nM; for `Cc1nn(C2CCCCC2)c(=O)c2sc3nccc(N(C)C)c3c12` [Compound 13C], over 1000 nM.
For `COc1ccc(-n2ncc3c(sc4ncnc(NC5CC5)c43)c2=O)cc1` [Compound 35B], the IC50 (read-out: mGluR1 IC50 rating) was in the range of 20 to 100 nM.
As to `COc1ncnc2sc3c(=O)n(-c4ccc(Cl)cc4)ncc3c12` [Compound 34A], the IC50 (read-out: mGluR1 IC50 rating) is 20 to 100 nM.
On to `CN(C)c1ccnc2sc3c(=O)n(-c4ccc5scnc5c4)ncc3c12` [Compound 9E], for which the IC50 runs as follows: (read-out: mGluR1 IC50) 4.3 nM; (read-out: mGluR1 IC50 rating) under 20 nM.
With `COc1ccc(-n2ncc3c(sc4nccc(N(C)N)c43)c2=O)cc1` [Compound 23I], the IC50 is, setting by setting: (read-out: mGluR1 IC50) 3.6 nM; (read-out: mGluR1 IC50 rating) under 20 nM.
For `CNc1ncnc2sc3c(=O)n(-c4ccc(OC)cc4)ncc3c12` [Compound 35C], the IC50 (read-out: mGluR1 IC50 rating) is 100 to 1000 nM.
Turning to `O=c1c2sc3nccc(NC4CC4)c3c2cnn1-c1ccc(Cl)cc1` [Compound 23A], the IC50 reads like this: (read-out: mGluR1 IC50) 13.7 nM; (read-out: mGluR1 IC50 rating) under 20 nM.
As to `COc1ccnc2sc3c(=O)n(-c4ccc(C)cc4)ncc3c12` [Compound 21C], the IC50 is 12.8 nM (read-out: mGluR1 IC50) and under 20 nM (read-out: mGluR1 IC50 rating).
Consider `COc1ccc(-n2ncc3c(sc4nccc(NCCO)c43)c2=O)cc1` [Compound 23F], for which the IC50 (read-out: mGluR1 IC50 rating) was in the range of 100 to 1000 nM.
Regarding `CNc1ccnc2sc3c(=O)n(-c4ccc(C)cc4)ncc3c12` [Compound 23Q], the IC50 (read-out: mGluR1 IC50 rating) lay in the range of 20 to 100 nM.
Still for that read-out and setting: in the case of `COCCNc1ccnc2sc3c(=O)n(-c4ccc(OC)cc4)ncc3c12` [Compound 23E] it was over 1000 nM.
Take `Cc1ccc(-n2ncc3c(sc4nccc(N(C)C)c43)c2=O)cc1` [Compound 9A]: the IC50 runs as follows: (read-out: mGluR1 IC50) 3.6 nM; (read-out: mGluR1 IC50 rating) under 20 nM.
On to `O=c1c2sc3nccc(NC4CCC4)c3c2cnn1-c1ccc(Cl)cc1` [Compound 23J], for which, for the setting “read-out: mGluR1 IC50 rating”, the IC50 was in the range of 100 to 1000 nM.
For `CN(C)c1ccnc2sc3c(=O)n(-c4ccc(Br)cc4)ncc3c12` [Compound 9D], the IC50 is, setting by setting: (read-out: mGluR1 IC50) 2.9 nM; (read-out: mGluR1 IC50 rating) under 20 nM.
`COc1ccc(-n2ncc3c(sc4nccc(N5CCC5)c43)c2=O)cc1` [Compound 23L]: the IC50 (read-out: mGluR1 IC50 rating) was in the range of 100 to 1000 nM.
Regarding `CCNc1ccnc2sc3c(=O)n(-c4ccc(OC)cc4)ncc3c12` [Compound 23O], where the note is “read-out: mGluR1 IC50 rating”, the IC50 is 100 to 1000 nM.
As for `CNc1ccnc2sc3c(=O)n(-c4ccc(OC)cc4)ncc3c12` [Compound 23N], the IC50 (read-out: mGluR1 IC50 rating) is 20 to 100 nM.
Take `CCNc1ccnc2sc3c(=O)n(-c4ccc(Cl)cc4)ncc3c12` [Compound 23K]: the IC50 (read-out: mGluR1 IC50 rating) was in the range of 20 to 100 nM.
For `Cc1n[nH]c(=O)c2sc3nccc(N(C)C)c3c12` [Compound 13A], the IC50 (read-out: mGluR1 IC50 rating) was over 1000 nM.
On to `Cc1ccc(-n2ncc3c(sc4nccc(NC5CC5)c43)c2=O)cc1` [Compound 23G], for which the IC50 by setting is: (read-out: mGluR1 IC50) 18.5 nM; (read-out: mGluR1 IC50 rating) under 20 nM.
`COc1ccnc2sc3c(=O)n(-c4ccc(Cl)cc4)ncc3c12` [Compound 21A]: under “read-out: mGluR1 IC50 rating”, the IC50 is 20 to 100 nM.
In the case of `CN(C)c1ccnc2sc3c(=O)n(-c4ccc(Cl)cc4)ncc3c12` [Compound 9C], the IC50 (read-out: mGluR1 IC50) is 2.4 nM and the IC50 (read-out: mGluR1 IC50 rating) is under 20 nM.
As to `CCNc1ncnc2sc3c(=O)n(-c4ccc(OC)cc4)ncc3c12` [Compound 35A], the IC50 (read-out: mGluR1 IC50 rating) fell in the range of 100 to 1000 nM.
For `CN(C)c1ccnc2sc3c(=O)n(-c4ccc5ncsc5c4)ncc3c12` [Compound 9F], the IC50 was 7.8 nM (read-out: mGluR1 IC50) and under 20 nM (read-out: mGluR1 IC50 rating).
As to `COc1ccc(-n2ncc3c(sc4nccc(NC5CC5)c43)c2=O)cc1` [Compound 23B], the IC50 (read-out: mGluR1 IC50 rating) lay within 100 to 1000 nM.
Regarding `CN(C)c1ccnc2sc3c(=O)n(C4CCCCC4)ncc3c12` [Compound 9G], the IC50 (read-out: mGluR1 IC50 rating) is 20 to 100 nM.
On to `C#CCNc1ccnc2sc3c(=O)n(-c4ccc(C)cc4)ncc3c12` [Compound 23S], for which the IC50 (read-out: mGluR1 IC50 rating) was 20 to 100 nM.
In the case of `Cc1ccc(-n2ncc3c(sc4nccc(NCCO)c43)c2=O)cc1` [Compound 23H], the IC50 (read-out: mGluR1 IC50 rating) fell in the range of 100 to 1000 nM.
As for `COc1ccc(-n2ncc3c(sc4nccc(N(C)C)c43)c2=O)cc1` [Compound 9B], the IC50 is 4.5 nM (read-out: mGluR1 IC50) and under 20 nM (read-out: mGluR1 IC50 rating).
In the case of `O=c1c2sc3nccc(NCCO)c3c2cnn1-c1ccc(Cl)cc1` [Compound 23D], the IC50 (read-out: mGluR1 IC50 rating) was 20 to 100 nM.
On the same count and under the same terms, in the case of `COc1ccc(-n2ncc3c(sc4nccc(OC)c43)c2=O)cc1` [Compound 21B] it was 20 to 100 nM; in that of `COc1ccc(-n2nc(C)c3c(sc4nccc(N(C)C)c43)c2=O)cc1` [Compound 13D], over 1000 nM.
On to `COc1ccc(-n2ncc3c(sc4ncnc(OC)c43)c2=O)cc1` [Compound 34B], for which the IC50 (read-out: mGluR1 IC50 rating) lay within 100 to 1000 nM.
On to `C#CCNc1ccnc2sc3c(=O)n(-c4ccc(OC)cc4)ncc3c12` [Compound 23M], for which the IC50 (read-out: mGluR1 IC50 rating) was in the range of 100 to 1000 nM.
